Holding throughout (type): cell-based
The subject of data set [1] is C9. The experiment in a line: C9 knock down efficiency by western blot. The note with it: U87 cells, vs control siRNA. As to the method:
For siRNA knockdown experiments, siRNAs targeting C9 mRNA were designed with the Whitehead website (sirna.wi.mit.edu) and with RNAxs webserver (rna.tbi.univie.ac.at/cgi-bin/RNAxs). All siRNAs were obtained from GenePharma™. Lipofectamine RNAiMAX (Thermo Scientific™) was used as the transfection reagent for all siRNA experiments (according to the manufacturer's instructions). siRNA concentration was 40 nM per 60 mm plate. After 6 hours, media was changed and cells were treated again with siRNA after 48 hours. For RNA and protein analysis, cells were harvested after 48 hours following the second treatment. All KD experiments were performed in three biological replicates. The siRNA sequences were as follows: […] (SEQ ID NO:631; sense) and […] […]
For Western blot analysis, cells were lysed with lysis buffer (20 mM sodium phosphate (pH 7.0), 250 mM NaCl, 30 mM sodium pyrophosphate, 0.1% Nonidet™ P-40, 5 mM EDTA, 10 mM NaF, 0.1 mM Na3VO4, and 1 mM PMSF) supplemented with complete protease inhibitors (Roche™) and homogenized by passage through a 28 gauge needle. Protein concentration was measured with a Bio-Rad™ protein assay dye reagent and results were read using a spectrophotometer (BiophotometerPlus™ by Eppendorf™). […] Quantitation of blots was performed Image Studio Lite software (LI-COR Biosciences™). […]

The test system of data set [2] is U87 cells. The experiment in a line: TUNEL assay for DNA breaks. The settings on record: vs control. As to the method:
Cells were treated with control and C9 siRNA for three days. On day three, cells were collected for TUNEL assay using the FlowTACS kit (TREVIGEN™, 4817-60-K) according to manufacturer's instructions to detect DNA fragmentation. For a positive control, DNA damage was induced using doxorubicin. Data were collected on a FACSCalibur™ flow cytometer (Becton Dickinson™) and data analysis performed on FlowJo™.
ROS can cause oxidative DNA damage. Since elevated ROS levels were observed under C9 KD conditions, it may cause increase in DNA damage. To test this hypothesis, a TUNEL assay was used to measure DNA breaks. […] In addition to C9KD, U87 cells were treated with a known chemotherapeutic DNA damage-inducing drug to serve as a positive control for DNA damage (see FIG. 23). FIG. 23 presents data for the TUNEL assay of U87 cells treated as described for FIG. 21 and for positive DNA-damage control with 0.5 μM doxorubicin (DOX). FIG. 23A presents data for the percentage of cells with DNA fragmentation (shown by DNA damage) comparing control (siCtrl) C9 KD (siC9; SEQ ID NO:631) and DOX-treated cells as measured by FACS analysis. […] FIG. 24 is a set of graphs showing data for cells treated as described for FIG. 23, with the exception of using a different C9 siRNA, indicated as siC9 #2 (SEQ ID NO:633).

In data set [3] the test system is p53 null U87 cells. The data set is described as follows: qRT-PCR in p53 null U87 KO #4 cells. As to the method:
For most RNA experiments, RNA was isolated from cells using the Qiagen™ RNeasy minikit. Complementary DNA was generated using the Qiagen™ Quantitect™ reverse transcription kit with 0.5 μg of input RNA as measured with a NanoDrop spectrophotometer (Thermo Scientific™). Real-time PCR was carried out on an ABI StepOne Plus™ machine using power SYBR Green dye (Thermo Scientific™). Transcript levels were assayed in triplicate and normalized to RPL32 and HPS90 mRNAs. Relative changes in cDNA levels were calculated using the comparative Ct method (ΔΔCT method). All RT-qPCR primers were designed with Primer3Plus™ or retrieved from Primerbank™. Primer sequences are listed here, including in Table 3. All primers were purchased from Life Technologies™. H. Generation of p53 Knock Out U87 Cell Lines by CRISPR
See FIG. 32, which presents RT-qPCR analysis of C9ORF72, CDKN1A (p21), PUMA, MDM2 and PARP1 mRNA levels in U87 KO #4 cells treated with control (siCtrl) and C9 (siC9; SEQ ID NO:631) siRNA. These experiments were performed in three biological replicates (n=3) and error bars represent S.E.M. Statistical significance was assessed by unpaired t-test: NS P>0.05, *P≤0.05, **P≤0.01, ***P≤0.001 ****P≤0.0001.
Background: Quantitative PCR measures a nucleic acid by following its amplification.

Data set [4] relates to HCC1937 cells (with BRCA1 mutation). The experiment in a line: CellTiter-Glo viability assay in HCC1937 cells. The procedure:
[…] (HCC1937, with BRCA1 mutation) cells were harvested using trypsin (0.5 ml per well) and the media was saved from each well. The saved media were resuspended with the trypsinised cells and 2-3 aliquots (0.05 ml each) of this suspension was transferred to 96-well plates. HCC cells were subjected to S1 and S2 as described above. A CellTiter-Glo™ Luminescent Viability assay was used to measure the viability of these aliquots by adding 0.15 mL of the CTG-media mixture to each well. The rest of the culture was used to extract protein. Viability of cells was measured using the 1:1 dilution of the CellTiter-Glo™ Luminescent reagent (Promega™) with media, which was read on a Victor 5™ plate reader after 10 minutes of shaking at room temperature. The intensity of luminescence was normalized to that of the DMSO control.
Without being bound to any particular theory, it is believed that this is because PARP1 is inhibited which is known to cause death in BRCA1 deficient breast cancer cell lines.

On to “siC9: siRNA targeting C9 mRNA: UUAAUGAAACAAUAAUCACUC (SEQ ID NO:631; sense) and GUGAUUAUUGUUUCAUUAAUC (SEQ ID NO:632; antisense) (listed as RNA, chemistry not given here)”, for which the “C9 expression (western blot)” value in data set [1] is recorded as “reduced expression compared to control”. Also, the “DNA breaks (TUNEL)” value in data set [2] is on record as “increase in DNA breaks”. In data set [3] (p53 null U87 KO #4 cells), the “PUMA and MDM2 mRNA” value is recorded as “lower levels”; the “p21 mRNA” value is on record as “did not result in a significant change”. In data set [3] (p53 null U87 cells), the “PARP1 mRNA” value is reported as “repression was also observed”. In addition, the cell viability result in data set [4] is given as “decrease in their viability”.

(Values after US20210108199A1, “Treatment for aggressive cancers by targeting C9ORF72” (The Trustees of Columbia University in the City of New York, priority 2017, published 2021).)
